The assay addresses T1, TYK2 (h) (Homo sapiens, UniProt P29597).
T1 construct: purchased Millipore UK Ltd (contract assay service)
As to the kind of experiment: TYK2 (h) kinase assay. The format is biochemical. The method, then:
Kinase assays can be performed by measurement of incorporation of γ-33P ATP into immobilized myelin basic protein (MBP). High binding white 384 well plates (Greiner) are coated with MBP (Sigma #M-1891) by incubation of 60 μL/well of 20 μg/mL MBP in Tris-buffered saline (TBS; 50 mM Tris pH 8.0, 138 mM NaCl, 2.7 mM KCl) for 24 h at 4° C. Plates are washed 3× with 100 μL TBS. Kinase reactions are carried out in a total volume of 34 μL in kinase buffer (according to the need to make, for example, 5 mM Hepes pH 7.6, 15 mM NaCl, 0.01% bovine gamma globulin (Sigma #I-5506), 10 mM MgCl2, 1 mM DTT, 0.02% TritonX-100). Compound dilutions are performed in DMSO and added to assay wells to a final DMSO concentration of 1%. Each data point is measured in duplicate, and at least two duplicate assays are performed for each individual compound determination. […] A mixture of unlabeled ATP and γ-33P ATP is added to start the reaction (2×10^6 cpm of γ-33P ATP per well (3000 Ci/mmole) and 10 μM unlabeled ATP, typically. The reactions are carried out for 1 h at room temperature with shaking Plates are washed 7× with TBS, followed by the addition of 50 μL/well scintillation fluid (Wallac). Plates are read using a Wallac Trilux counter. This is only one format of such assays; various other formats are possible, as known to one skilled in the art. […]

T1 sequence (P29597 whole entry): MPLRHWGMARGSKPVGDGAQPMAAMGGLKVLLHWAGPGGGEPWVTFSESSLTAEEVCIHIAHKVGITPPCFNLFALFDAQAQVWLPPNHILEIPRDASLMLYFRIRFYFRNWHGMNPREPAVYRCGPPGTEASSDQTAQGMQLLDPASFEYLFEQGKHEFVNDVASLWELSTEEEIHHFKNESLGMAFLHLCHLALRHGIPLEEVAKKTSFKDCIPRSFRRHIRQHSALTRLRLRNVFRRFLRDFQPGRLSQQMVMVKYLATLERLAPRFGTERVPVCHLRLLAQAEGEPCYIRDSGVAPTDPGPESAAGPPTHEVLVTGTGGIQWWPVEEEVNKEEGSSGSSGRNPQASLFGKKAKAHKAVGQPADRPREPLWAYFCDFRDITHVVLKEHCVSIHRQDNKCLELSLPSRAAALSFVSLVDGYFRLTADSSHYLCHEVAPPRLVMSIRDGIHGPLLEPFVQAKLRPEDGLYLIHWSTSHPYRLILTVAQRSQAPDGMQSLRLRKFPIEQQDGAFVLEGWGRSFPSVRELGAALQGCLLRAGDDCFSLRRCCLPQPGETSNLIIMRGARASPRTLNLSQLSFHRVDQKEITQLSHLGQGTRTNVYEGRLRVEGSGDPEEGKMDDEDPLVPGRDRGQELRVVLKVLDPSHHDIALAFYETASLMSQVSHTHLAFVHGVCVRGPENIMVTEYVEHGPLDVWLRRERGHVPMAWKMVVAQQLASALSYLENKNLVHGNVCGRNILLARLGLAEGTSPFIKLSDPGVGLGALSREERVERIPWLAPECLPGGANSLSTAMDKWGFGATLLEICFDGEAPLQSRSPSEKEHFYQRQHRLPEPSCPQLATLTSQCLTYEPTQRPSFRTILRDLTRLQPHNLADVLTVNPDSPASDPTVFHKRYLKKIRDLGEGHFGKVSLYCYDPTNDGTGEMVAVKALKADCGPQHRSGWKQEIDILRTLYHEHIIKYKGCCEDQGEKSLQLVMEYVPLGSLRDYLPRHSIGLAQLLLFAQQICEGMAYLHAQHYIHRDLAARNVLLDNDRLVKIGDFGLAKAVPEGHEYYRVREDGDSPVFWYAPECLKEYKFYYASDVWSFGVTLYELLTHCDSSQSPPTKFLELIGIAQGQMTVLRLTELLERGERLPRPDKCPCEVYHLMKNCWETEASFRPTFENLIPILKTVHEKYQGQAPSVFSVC

In turn, `CN(c1nc(Nc2cnn(C)c2)ncc1Cl)C1CCN(c2ccc(C#N)cn2)CC1` [Ex. 5, 6-(4-((5-chloro-2-((1-methyl-1H-pyrazol-4-yl)amino)pyrimidin-4-yl) (methyl)amino)piperidin-1-yl)nicotinonitrile] displayed an IC50 of 0.022 µM. On to `Cc1c2ccc(Nc3ncc(Cl)c(NC4CCN(c5ccc(C#N)cn5)CC4)n3)cc2nn1C` [Ex. 4], for which the IC50 is 0.002 µM.

Source of the values: patent US10059689B2, “Substituted heteroaryl compounds and methods of use” (Sunshine Lake Pharma Co., Ltd., priority 2014, dated 2018).
